Test results as given in patent US20180312493A1, “Antibiotic Compounds, Pharmaceutical Formulations Thereof And Methods And Uses Therefor” (Simon Fraser University, priority 2015, published 2018).
Converted amounts (≈) assume the structure as drawn.

Columns and labels:
MRSA Pyk = target: T1, MRSA Pyk (Staphylococcus aureus, UniProt Q6GG09); assay: MRSA pyruvate kinase (PK) activity, continuous LDH-coupled assay; assay type: biochemical, methicillin resistant S. aureus (MRSA252)
T1 construct: made in house; host or cells: E. coli BL-21 (DE3)
T1 sequence (Q6GG09 whole entry): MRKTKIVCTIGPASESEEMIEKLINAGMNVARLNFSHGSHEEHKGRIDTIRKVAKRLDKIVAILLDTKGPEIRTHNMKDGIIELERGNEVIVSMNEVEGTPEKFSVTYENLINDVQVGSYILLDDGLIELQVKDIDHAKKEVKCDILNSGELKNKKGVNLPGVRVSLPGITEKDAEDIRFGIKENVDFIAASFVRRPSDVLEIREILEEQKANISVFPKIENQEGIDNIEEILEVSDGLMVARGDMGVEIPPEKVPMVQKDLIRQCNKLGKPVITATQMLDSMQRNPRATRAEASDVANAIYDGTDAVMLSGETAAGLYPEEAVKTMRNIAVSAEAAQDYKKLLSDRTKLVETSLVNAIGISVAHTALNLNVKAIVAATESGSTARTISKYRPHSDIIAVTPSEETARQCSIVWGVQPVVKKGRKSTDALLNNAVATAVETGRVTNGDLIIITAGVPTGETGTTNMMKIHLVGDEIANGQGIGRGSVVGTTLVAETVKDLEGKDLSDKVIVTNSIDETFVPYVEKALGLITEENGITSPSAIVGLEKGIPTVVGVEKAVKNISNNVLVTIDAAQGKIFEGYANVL
Source text: Genomic DNA of MRSA strain Sanger 252 extracted using DNeasy Tissue Kit™ (Qiagen™) was used as a template to generate the His-tagged MRSA PK. Human cDNA from MCF-7 breast cancer cell line (courtesy of Dr. J Wong, BC Cancer Research Center (Vancouver, Canada)) was used as a template to generate the full-length human M2 PK enzyme. The following primer sets were used creating appropriate restriction sites (NdeI and XhoI sites underlined): For cloning of MRSA PK: M27F 5′-[…]-3′ and M27R 5′-[…]-3′, for cloning of human M2 PK isoform: hM2F 5′-[…]-3′ and hM2R 5′-[…]-3′. The resulting PCR fragments for each construct were cloned into the NdeI and XhoI unique sites of the bacterial expression vector pET-28a (+) (Novagen™). […] The sequence and the correct reading frame of all constructs were verified by sequencing. Human M1, R and L PK constructs in pET-28-a(+) vectors (courtesy of Dr. L. Cantley, Harvard Medical, School (Boston, USA)) were used to generate relevant recombinant His-tagged human PK isoforms.
MRSA and human constructs in pET-28a(+) were used to express relevant recombinant PK proteins in E. coli BL-21 (DE3). The proteins were expressed and purified using Ni-NTA agarose (Qiagen™) according to the manufacturer's protocol. Briefly, cells were grown to an absorbance of 0.4-0.5 at 600 nm in 2×YT medium, then induced with 0.1 mM IPTG for 3 h at 20° C. Cells were lysed by sonication on ice (3×10-s bursts with a 30-s recovery between bursts) in lysis buffer (0.2 mg/ml lysozyme, 50 mM Tris pH 7.5, 10 mM MgCl2, 200 mM NaCl, 100 mM KCl, 10% glycerol, 10 mM imidazole, 0.5% NP-40 and 1 mM DTT containing Complete™ protease inhibitor). Cell lysates were cleared by centrifugation (18,000×g in a Beckman™ JA-20 rotor) for 20 min at 4° C. and PK isoforms were purified by batch binding to Ni-NTA resin. The resins were then packed in columns (1×2 cm) and washed with 400 column volumes lysis buffer containing 30 mM imidazole. His-tagged PK isoforms were eluted with the same buffer containing 300 mM imidazole. The proteins were dialyzed overnight at 4° C. against 2000 volumes of ice-cold 30 mM Tris pH 7.5, 25 mM KCl, 5 mM MgCl2, 10% glycerol and 1 mM DTT to remove imidazole. All purification steps were done at 4° C.; enzymes were flash-frozen and stored at −70° C. Enzymatic activity of frozen protein preparations was stable for at least 10 months and up to 5 freeze/thaw cycles. Purity and physical integrity of proteins were assessed using SDS-polyacrylamide gel electrophoresis (SDS-PAGE) followed by coomassie blue staining. Protein concentration was estimated by Bradford assay (Bio-Rad Protein Assay™) using bovine serum albumin as a standard.
Candidate MRSA PK inhibitors were assayed for their ability to inhibit enzymatic activities of MRSA and human PKs. PK activity was determined using a continuous assay coupled to lactate dehydrogenase (LDH) in which the change in absorbance at 340 nm owing to oxidation of NADH was measured using a Benchmark Plus™ microplate spectrophotometer (Bio-Rad Laboratories, Hercules, Calif.). […] Reactions were initiated by the addition of 15 nM of one of the PK enzymes. PK activity proportional to the rate of change at 340 nm was expressed as specific activity (μmol/min/mg), which is defined as the amount of PK that catalyzes the formation of one micromole of either product per minute. Inhibitors were dissolved in DMSO with the final concentration of the solvent never exceeding 1% of the assay volume. IC50 values were calculated by curve fitting on a four-parameter dose-response model with variable slope using Graphpad Prism 5.0™ (GraphPad™ Software Inc., La Jolla, Calif.). In all studies, less than 10% of total PEP was exhausted during the reaction. Reactions were performed at 30° C. for up to 5 min. All values determined represent at least two measurements, in triplicate (Tables 1-6) or duplicate unless mentioned otherwise. […]

S. aureus (ATCC29213) = assay: In vitro susceptibility, broth microdilution (MIC); assay type: cell-based; settings: Staphylococcus aureus; S. aureus ATCC29213; 18-24 h, 37 C; read-out: Antimicrobial activity (MIC) S. aureus ATCC29213
Source text: Epidemic methicillin resistant S. aureus (MRSA) strain sequenced at the Sanger Centre (MRSA252, NRS71) was obtained from NARSA (Network on Antimicrobial Resistance in S. aureus). Methicillin sensitive S. aureus (ATCC 29213 and 25923), methicillin resistant S. aureus (ATCC BAA-1762), and Salmonella typhimurium (ATCC BAA-185) were obtained from ATCC, The Global Bioresource Center. Acinetobacter baumannii (ATCC 19606 and ATCC 17978), Klebsiella pneumonia (C238), vancomycin resistant Enterococci #2 (2010A) (VRE#2), MRSA (USA400, MW2) and Pseudomonas aeruginosa (PA0-1) were obtained from the laboratory of Dr B. B. Finlay at the University of British Columbia (Vancouver, Canada).
The antimicrobial activities of PK inhibitor candidates were determined using the 96-well microtiter standard 2-fold serial broth microdilution method as described by CLSI (formerly NCCLS) with the various gram-positive and gram-negative bacteria species mentioned above. Bacteria from a single colony were grown, overnight in either BHI Broth (VRE), mueller hinton broth (S. aureus 29213; MRSA USA400, A. baumannii 19606, MRSA BAA-1762) or L-broth (P. aeruginosa, S. typhimurium, K. pneumonia and A. baumannii 17978). […] Culture plates were incubated for 18-24 h at 37° C., and optical density at 600 nm (OD600) was measured using a Benchmark Plus™ microplate spectrophotometer (Bio-Rad™). The absorbance control values for the series containing CAMHB and inhibitor were subtracted as background from the corresponding infected wells. Minimal inhibitory concentration (MIC) was defined as the lowest concentration of test compound leading to complete inhibition of cell growth in relation to compound-free control wells as determined by optical density. Vancomycin, methicillin and ciprofloxicin were used as reference compounds. All assays were run in triplicate or duplicate. Experiments were replicated at least twice to verify reproducibility using the above conditions.

SMILES	IC50 (MRSA Pyk) [nM]	MIC (S. aureus (ATCC29213)) [µg/mL]
O=C(c1c(/C=C/c2ccc(Cl)cc2)[nH]c2cc(Br)ccc12)N1CCOCC1 [Compound 22, (E)-(6-Bromo-2-(4-chlorostyryl)-1H-indol-3-yl)(morpholino)methanone]	< 100	> 64
CN(C)CCN(C)C(=O)c1c(/C=C/c2ccc(Cl)cc2)[nH]c2cc(Br)ccc12 [Compound 24, (E)-6-Bromo-2-(4-chlorostyryl)-N-(2-(dimethylamino)ethyl)-N-methyl-1H-indole-3-carboxamide]	100 to 1000	> 64
O=C(c1c(/C=C/c2ccc(Cl)cc2)[nH]c2cc(Br)ccc12)N1CCNCC1 [Compound 25, (E)-(6-Bromo-2-(4-chlorostyryl)-1H-indol-3-yl)(piperazin-1-yl)methanone]	100 to 1000	8 (≈ 18 µM)
O=C(NC1CN2CCC1CC2)c1c(/C=C/c2ccc(Cl)cc2)[nH]c2cc(Br)ccc12 (centres unmarked) [Compound 26, (E)-6-Bromo-2-(4-chlorostyryl)-N-(quinuclidin-3-yl)-1H-indole-3-carboxamide]	100 to 1000	8 (≈ 16.5 µM)
O=C(NCc1ccccc1)c1c(/C=C/c2ccc(Cl)cc2)[nH]c2cc(Br)ccc12 [Compound 27, (E)-N-Benzyl-6-bromo-2-(4-chlorostyryl)-1H-indole-3-carboxamide]	< 100	> 64
O=C(NCCO)c1c(/C=C/c2ccc(Cl)cc2)[nH]c2cc(Br)ccc12 [Compound 28, (E)-6-Bromo-2-(4-chlorostyryl)-N-(2-hydroxyethyl)-1H-indole-3-carboxamide]	100 to 1000	> 64
O=C(NCCN1CCC(O)CC1)c1c(/C=C/c2ccc(Cl)cc2)[nH]c2cc(Br)ccc12 [Compound 30, (E)-6-Bromo-2-(4-chlorostyryl)-N-(2-(4-hydroxypiperidin-1-yl)ethyl)-1 H-indole-3-carboxamide]	100 to 1000	16 (≈ 31.8 µM)
CN1CCN(CCNC(=O)c2c(/C=C/c3ccc(Cl)cc3)[nH]c3cc(Br)ccc23)CC1 [Compound 31, (E)-6-Bromo-2-(4-chlorostyryl)-N-(2-(4-methylpiperazin-1-yl)ethyl)-1 H-indole-3-carboxamide]	< 100	16 (≈ 31.9 µM)
O=C(NC(CO)CO)c1c(/C=C/c2ccc(Cl)cc2)[nH]c2cc(Br)ccc12 [Compound 32, (E)-6-Bromo-2-(4-chlorostyryl)-N-(1,3-dihydroxypropan-2-yl)-1H-indole-3-carboxamide]	< 100	> 64
CC(C)(C)OC(=O)N1CCN(CCNC(=O)c2c(/C=C/c3ccc(Cl)cc3)[nH]c3cc(Br)ccc23)CC1 [Compound 33, (E)-tert-Butyl 4-(2-(6-bromo-2-(4-chlorostyryl)-1H-indole-3-carboxamido)ethyl)piperazine-1-carboxylate]	> 1000	> 64
CN(C)CCNC(=O)c1c(/C=C/c2cc(Cl)cc(Cl)c2)[nH]c2cc(Br)ccc12 [Compound 34, (E)-6-Bromo-2-(3,5-dichlorostyryl)-N-(2-(dimethylamino)ethyl)-1H-indole-3-carboxamide]	> 1000	16 (≈ 33.2 µM)
COc1ccc(/C=C/c2[nH]c3cc(Br)ccc3c2C(=O)NCCO)nc1 [Compound 35, (E)-6-Bromo-N-(2-hydroxyethyl)-2-(2-(5-methoxypyridin-2-yl)vinyl)-1 H-indole-3-carboxamide]	100 to 1000	> 64
CN(C)C(=O)c1c(/C=C/c2ccc(Cl)nc2)[nH]c2cc(Br)ccc12 [Compound 36, (E)-6-bromo-2-(2-(6-chloropyridin-3-yl)vinyl)-N,N-dimethyl-1H-indole-3-carboxamide]	100 to 1000	> 64
O=C(O)CNC(=O)c1c(/C=C/c2ccc(Cl)cc2)[nH]c2cc(Br)ccc12 [Compound 38, (E)-2-(6-Bromo-2-(4-chlorostyryl)-1H-indole-3-carboxamido)acetic Acid]	< 100	> 64
O=C(O)CCNC(=O)c1c(/C=C/c2ccc(Cl)cc2)[nH]c2cc(Br)ccc12 [Compound 39, (E)-3-(6-Bromo-2-(4-chlorostyryl)-1H-indole-3-carboxamido)propanoic Acid]	< 100	> 64
O=C(NCCC1CCOCC1)c1c(/C=C/c2ccc(Cl)cc2)[nH]c2cc(Br)ccc12 [Compound 42, (E)-6-Bromo-2-(4-chlorostyryl)-N-(2-(tetrahydro-2H-pyran-4-yl)ethyl)-1H-indole-3-carboxamide]	100 to 1000	> 64
O=C(c1c(CCc2ccc(Cl)cc2)[nH]c2cc(Br)ccc12)N1CCOCC1 [Compound 47, (6-Bromo-2-(4-chlorophenethyl)-1H-indol-3-yl)(morpholino)methanone]	> 1000	> 64
CNC(=O)c1c(CCc2ccc(Cl)cc2)[nH]c2cc(Br)ccc12 [Compound 49, 6-Bromo-2-(4-chlorophenethyl)-N-methyl-1H-indole-3-carboxamide]	> 1000	> 64
CN(C)C(=O)c1c(CCc2ccc(Cl)cc2)[nH]c2cc(Br)ccc12 [Compound 50, 6-Bromo-2-(4-chlorophenethyl)-N,N-dimethyl-1H-indole-3-carboxamide]	> 1000	> 64
CN(C)C(=O)c1c(CCc2ccc(Cl)cc2)[nH]c2ccccc12 [Compound 51, 2-(4-Chlorophenethyl)-N,N-dimethyl-1H-indole-3-carboxamide]	> 1000	> 64
O=C(NCCN1CCNCC1)c1c(/C=C/c2ccc(Cl)cc2)[nH]c2cc(Br)ccc12 [Compound 52, (E)-6-Bromo-2-(4-chlorostyryl)-N-(2-(piperazin-1-yl)ethyl)-1H-indole-3-carboxamide]	< 100	16 (≈ 32.8 µM)
O=C(NC1CCNCC1)c1c(/C=C/c2ccc(Cl)cc2)[nH]c2cc(Br)ccc12 [Compound 53, (E)-6-Bromo-2-(4-chlorostyryl)-N-(piperidin-4-yl)-1H-indole-3-carboxamide]	< 100	8 (≈ 17.4 µM)
